Patent US12098162B2, “Neutral glycosylated amides and dianionic glucuronidated acids as stabilizers for biological molecules” (Extremochem, LDA, priority 2017, dated 2024)

Tests used:
Assay type in all cases: physicochemical
Factor IX = Factor IX (Homo sapiens, UniProt P00740); experiment: Stabilization assay of Factor IX measured by DSF; details: 0.25 M stabiliser in water, pH 7-8; Tm without compounds 50 °C; FIG. 5
Protocol: (§1) Differential Scanning Fluorimetry (DSF) Assay
(§2) The protein melting temperature (Tm) determination was performed by monitoring protein unfolding with the fluoroprobe SYPRO Orange dye (Molecular Probes), which although completely quenched in aqueous environment, emits fluorescence upon binding to protein hydrophobic patches. Such increase in fluorescence can be measured as a function of temperature. The thermal shift assay was performed on an iCycle iQ5 Real Time PCR Detection System (Bio-Rad), equipped with a charge-coupled device (CCD) camera and a Cy3 filter with excitation and emission wavelengths of 490 and 575 nm, respectively. This equipment can simultaneously detect the fluorescence changes in 96-well plates (low profile plate, Bio-Rad) and thus can be used for parallel thermal stability assays. The 96-well plates are sealed with optical quality sealing tape (Bio-Rad) and centrifuged at 2500 g for 1 minutes immediately before the assay to remove possible air bubbles. The plates are subsequently heated from 20 to 90° C. with stepwise increments of 1° C. with 60 seconds equilibration time, followed by the fluorescence read out. Fluorescence intensities versus temperature are used to calculate the protein melting temperature (Tm) by determining the first derivative (d(Rfu)/dT) and extract the exact transition inflection point. Delta TM values (DTM) for the various conditions were calculated by subtracting the TM value obtained for the reference from the TM value obtained for each condition.
(§3) In a typical assay with a total volume of 20 μL, a protein concentration from 0.1-0.5 mg/mL and a dye concentration of 5 fold were used to guarantee the best signal to noise ratio. The protein stock solutions were prepared in their corresponding buffers before performing the DSF experiments. Stabiliser solutions and dyes were prepared according to each assay specific conditions. The assay was prepared by adding 1-2 μL of protein to 8-9 μL of dye buffer solution, and 10 μL of compound solution. Controls were prepared by replacing the volume of stabilisers by the correspondent buffer.
Stabilization of Factor IX using neutral amide-containing glycosides of the present invention were measured using DSF. The new stabilizers increased the melting temperature of factor IX at a 0.25 M concentration in water and at pH 7-8, as shown in FIG. 5.

ubiquitin = target: T1, ubiquitin (Homo sapiens, UniProt P0CG47); experiment: Stabilization assay of ubiquitin measured by DSF; details: 0.25 M compound; phosphate buffer pH 12; Tm without compounds 72 °C; FIG. 4
T1 construct: Stabilization Assay of Ubiquitin Measured by DSF
Protocol: as §1
as §2, with “The 96-well plates are sealed with optical quality sealing tape (Bio-Rad) and centrifuged at 2500 g for 1 minutes immediately before the assay to remove possible air bubbles.” left out, “condition. […]” for “condition.”

lysozyme = lysozyme (Gallus gallus, UniProt P00698); experiment: Stabilization of lysozyme measured by DSF (melting temperature); details: 0.25 M stabiliser, FIG. 1; for stabilization effect on lysozyme (increase of melting temperature Tm): 25 mM sodium acetate buffer pH 3.6 and phosphate buffer pH 12, Tm without compounds 71 °C (pH 3.6) and 55 °C (pH 12); for stabilization effect on lysozyme at pH 12 compared with pH 3.6: DSF
lysozyme, sequence (P00698 19-147): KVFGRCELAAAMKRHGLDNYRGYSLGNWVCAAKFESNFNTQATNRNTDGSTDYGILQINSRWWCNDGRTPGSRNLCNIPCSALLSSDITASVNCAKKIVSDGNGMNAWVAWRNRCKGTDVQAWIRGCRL
Protocol: as §1, §2, §3
The stabilization of lysozyme in the presence of several stabilisers at 0.25 M concentration and at pH 3.6 and pH 12 was studied using DSF (FIG. 1). […] The stabilization effect was higher for GBA, GaGlyA, b-GGlyA, b-GaLA, b-GaGlyA, and b-GaBA at the higher pH (pH 12). All new compounds are able to stabilise lysozyme under both stress conditions.

adalimumab (Humira®) [1] = experiment: Stabilization assay of adalimumab (Humira) measured by HPSEC under low pH stress; details: GaGlyA 0.5 M; Humira 0.4 mg/ml; room temperature, no thermal stress; compared with no stabiliser; FIG. 2
Protocol: High Performance Size Exclusion Chromatography (HPSEC) Assay
HP-SEC was performed with Waters 515 pump, a Waters 2487 Dual Absorbance Detector (Waters, USA) and a Rheodyme 77251 injector (Waters, USA). A TSK Gel G3000 SWXL column (300 mm×7.8 mm) (Tosoh Biosep, Germany) was used. The volume of injection was adjusted according to each sample concentration in order to inject […] sample of biological molecule, and separation was performed at a flow rate of 1.0 mL/min or adjusted as appropriate. A suitable running buffer was used, e.g., 100 mM sodium sulfate, 100 mM sodium phosphate dibasic pH 6.8 for Humira® samples. UV detection was performed at a wavelength suitable to detect the biological molecule, e.g., 280 nm. No thermal stress was applied and assay was performed at room temperature. Absorbance was measured to determine the concentration of biological molecule and thus determine amount of degredation of the biological molecule.
A pH titration of adalimumab (Humira®) to pH 3.2 was performed either in the absence and presence of stabiliser GaGlyA 0.5 M, and the results were analysed by HPSEC (FIG. 2). […] Absorbance was measured to determine the concentration of biological molecule and thus determine amount of degredation of the biological molecule. […]

adalimumab (Humira®) [2] = experiment: Stabilization assay of adalimumab measured by DSF; details: 0.25 M stabiliser; phosphate buffer pH 12; Tm without compounds 41 °C; FIG. 3
Protocol: as §1
as §2, with “The 96-well plates are sealed with optical quality sealing tape (Bio-Rad) and centrifuged at 2500 g for 1 minutes immediately before the assay to remove possible air bubbles.” left out, “condition. […]” for “condition.”

Factor IX, sequence (P00740 47-461): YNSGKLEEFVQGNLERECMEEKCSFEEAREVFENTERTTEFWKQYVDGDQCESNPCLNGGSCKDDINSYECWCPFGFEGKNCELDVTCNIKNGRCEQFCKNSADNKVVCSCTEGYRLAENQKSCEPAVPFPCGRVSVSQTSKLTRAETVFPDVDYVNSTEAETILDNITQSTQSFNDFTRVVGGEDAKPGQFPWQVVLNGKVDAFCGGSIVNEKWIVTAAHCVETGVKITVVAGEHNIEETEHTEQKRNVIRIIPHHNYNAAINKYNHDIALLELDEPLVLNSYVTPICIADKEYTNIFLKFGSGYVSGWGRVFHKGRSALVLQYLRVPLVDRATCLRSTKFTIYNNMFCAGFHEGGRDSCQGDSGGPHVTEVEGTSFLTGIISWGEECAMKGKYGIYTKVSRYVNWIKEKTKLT

| stabilization of Factor IX (increase of melting temperature) (Factor IX) | increase of the melting temperature of ubiquitin (ubiquitin) [°C] | stabilization effect on lysozyme (increase of melting temperature Tm) (lysozyme) | stabilization effect on lysozyme at pH 12 compared with pH 3.6 (lysozyme) | Molecule | degradation of adalimumab after 12 hours at pH 3.2 (HPSEC) (adalimumab (Humira®) [1]) | increase of the melting temperature of adalimumab (adalimumab (Humira®) [2]) [°C] |
| --- | --- | --- | --- | --- | --- | --- |
| showed stabilization of factor IX | 9 | showed a stabilization effect | higher | CC(CC(N)=O)OC1O[C@H](CO)[C@@H](O)[C@H](O)[C@H]1O (stereo partly drawn) [GBA, 3-O-(α/β-D-glucopyranosyl)-3-hydroxybutyramide] | – | – |
| showed stabilization of factor IX | – | – | – | NC(=O)COC1O[C@H](CO)[C@@H](O)[C@H](O)[C@H]1O (stereo partly shown) [GGlyA] | – | – |
| – | – | showed a stabilization effect | higher | NC(=O)COC1O[C@H](CO)[C@H](O)[C@H](O)[C@H]1O (stereo partly shown) [GaGlyA] | much reduced | – |
| showed stabilization of factor IX | – | showed a stabilization effect | – | NC(=O)CO[C@H]1O[C@H](CO)[C@@H](O)[C@H](O)[C@@H]1O [MglyA, 2-O-(α-D-mannopyranosyl)acetamide] | – | – |
| – | – | showed a stabilization effect | higher | CC(CC(N)=O)O[C@@H]1O[C@H](CO)[C@H](O)[C@H](O)[C@H]1O (stereo partly drawn) [b-GaBA, 3-O-(β-D-galactopyranosyl)-3-hydroxybutyramide] | – | 22 |
| – | – | showed a stabilization effect | higher | beta-galactosyl-lactamide [b-GaLA] | – | – |
| – | – | showed a stabilization effect | – | beta-glucosyl-lactamide [b-GLA] | – | – |

| Molecule | stabilization of Factor IX (increase of melting temperature) (Factor IX) | increase of the melting temperature of ubiquitin (ubiquitin) [°C] | stabilization effect on lysozyme (increase of melting temperature Tm) (lysozyme) | stabilization effect on lysozyme at pH 12 compared with pH 3.6 (lysozyme) | degradation of adalimumab after 12 hours at pH 3.2 (HPSEC) (adalimumab (Humira®) [1]) | increase of the melting temperature of adalimumab (adalimumab (Humira®) [2]) [°C] |
| --- | --- | --- | --- | --- | --- | --- |
| C[C@H](OC1O[C@H](CO)[C@H](O)[C@H](O)[C@H]1O)C(N)=O (stereo partly shown) [GaLA] | showed stabilization of factor IX | – | showed a stabilization effect | – | – | – |
| C[C@H](O[C@H]1O[C@H](CO)[C@@H](O)[C@H](O)[C@@H]1O)C(N)=O [MLA, (2S)-2-O-(α-D-mannopyranosyl)-3-propanamide] | – | – | showed a stabilization effect | – | – | – |
